Test results reported in ChEMBL document CHEMBL3885861, “Open TG-GATES”.

Species: Rattus norvegicus
Assay: Open TG-GATES - Regimen: Daily Repeat
Type: toxicity, organism-based, Sprague-Dawley
Set-up: regimen Daily Repeat, gender Male, age 6 weeks
Conditions: in vivo, po, 0 mg/kg, route gavage, dose level Control; for APTT / Bas / Eos / Fbg / Hb / Ht / Lym / MCH / MCHC / MCV / Mono / Neu / PT / Plat / RBC / Ret / WBC: tissue Blood; for KIDNEY_L / KIDNEY_R / KIDNEY_TOTAL: tissue Kidney; for LIVER: tissue Liver; for A/G / ALP / ALT / AST / BUN / CRE / Ca / Cl / DBIL / GLC / IP / K / LDH / Na / PL / RALB / TBIL / TC / TG / TP / gamma-GTP: tissue Plasma

`O=C(OC[C@H]1O[C@@H](OC(=O)c2cc(O)c(O)c(OC(=O)c3cc(O)c(O)c(O)c3)c2)[C@H](OC(=O)c2cc(O)c(O)c(OC(=O)c3cc(O)c(O)c(O)c3)c2)[C@@H](OC(=O)c2cc(O)c(O)c(OC(=O)c3cc(O)c(O)c(O)c3)c2)[C@@H]1OC(=O)c1cc(O)c(O)c(OC(=O)c2cc(O)c(O)c(O)c2)c1)c1cc(O)c(O)c(OC(=O)c2cc(O)c(O)c(O)c2)c1` [TANNIC ACID] showed a TERMINAL_BW (72 h, time 3 day) of 216 g, an APTT (72 h, time 3 day) of 17.1 s and a Bas (72 h, time 3 day) of 0%. For the same molecule, the Eos (72 h, time 3 day) was 1%, the Fbg (72 h, time 3 day) was 245.4 mg/dL and the Hb (72 h, time 3 day) was 13.2 g/dL. For the same molecule, the Ht (72 h, time 3 day) was 39.3%, the Lym (72 h, time 3 day) was 77.6% and the MCH (72 h, time 3 day) was 21.8 pg. It also gave an MCHC (72 h, time 3 day) of 33.4%, an MCV (72 h, time 3 day) of 65.2 fL and a Mono (72 h, time 3 day) of 6.4%. It also gave a Neu (72 h, time 3 day) of 15%, a PT (72 h, time 3 day) of 11.7 s and a Plat (72 h, time 3 day) of 118.4 x10_4/uL. For the same molecule, the RBC (72 h, time 3 day) was 603.8 x10_4/ul, the Ret (72 h, time 3 day) was 8.3% and the WBC (72 h, time 3 day) was 101.4 x10_2/uL. The KIDNEY_L (72 h, time 3 day) was 0.9 g, the KIDNEY_R (72 h, time 3 day) was 1 g and the KIDNEY_TOTAL (72 h, time 3 day) was 1.9 g. The LIVER (72 h, time 3 day) was 10.5 g, the A/G (72 h, time 3 day) was 2.1 and the ALP (72 h, time 3 day) was 883.4 IU/L. The ALT (72 h, time 3 day) was 36.2 IU/L, the AST (72 h, time 3 day) was 62.2 IU/L and the BUN (72 h, time 3 day) was 18 mg/dL. It also gave a CRE (72 h, time 3 day) of 0.5 mg/dL, a Ca (72 h, time 3 day) of 10.9 mg/dL and a Cl (72 h, time 3 day) of 104.2 meq/L. For the same molecule, the DBIL (72 h, time 3 day) was 0 mg/dL, the GLC (72 h, time 3 day) was 202 mg/dL and the IP (72 h, time 3 day) was 8 mg/dL. It also gave a K (72 h, time 3 day) of 4.8 meq/L, an LDH (72 h, time 3 day) of 62.4 IU/L and a Na (72 h, time 3 day) of 139.6 meq/L. For the same molecule, the PL (72 h, time 3 day) was 146.8 mg/dL, the RALB (72 h, time 3 day) was 3.8 g/dL and the TBIL (72 h, time 3 day) was 0.3 mg/dL. The TC (72 h, time 3 day) was 75.2 mg/dL, the TG (72 h, time 3 day) was 112.8 mg/dL and the TP (72 h, time 3 day) was 5.7 g/dL. The gamma-GTP (72 h, time 3 day) was 1 IU/L, the TERMINAL_BW ([…], time 7 day) was 253.1 g and the TERMINAL_BW ([…], time 14 day) was 306.2 g. The TERMINAL_BW ([…], time 28 day) was 398.3 g, the APTT ([…], time 7 day) was 16.7 s and the Bas ([…], time 7 day) was 0%. For the same molecule, the Eos ([…], time 7 day) was 1%, the Fbg ([…], time 7 day) was 219.4 mg/dL and the Hb ([…], time 7 day) was 12.8 g/dL. It also gave a Ht ([…], time 7 day) of 38.2%, a Lym ([…], time 7 day) of 77.8% and an MCH ([…], time 7 day) of 21.4 pg. The MCHC ([…], time 7 day) was 33.5%, the MCV ([…], time 7 day) was 63.9 fL and the Mono ([…], time 7 day) was 6.8%. For the same molecule, the Neu ([…], time 7 day) was 14.4%, the PT ([…], time 7 day) was 11.1 s and the Plat ([…], time 7 day) was 101 x10_4/uL. It also gave an RBC ([…], time 7 day) of 598 x10_4/ul, a Ret ([…], time 7 day) of 6.8% and a WBC ([…], time 7 day) of 131.8 x10_2/uL. For the same molecule, the APTT ([…], time 14 day) was 16 s, the Bas ([…], time 14 day) was 0% and the Eos ([…], time 14 day) was 1.2%. It also gave a Fbg ([…], time 14 day) of 251.8 mg/dL, a Hb ([…], time 14 day) of 13.9 g/dL and a Ht ([…], time 14 day) of 41.6%. For the same molecule, the Lym ([…], time 14 day) was 78%, the MCH ([…], time 14 day) was 20.7 pg and the MCHC ([…], time 14 day) was 33.4%. The MCV ([…], time 14 day) was 62.1 fL, the Mono ([…], time 14 day) was 7% and the Neu ([…], time 14 day) was 14%. It also gave a PT ([…], time 14 day) of 11.5 s, a Plat ([…], time 14 day) of 125.4 x10_4/uL and an RBC ([…], time 14 day) of 669.8 x10_4/ul. For the same molecule, the Ret ([…], time 14 day) was 5.3%, the WBC ([…], time 14 day) was 128.6 x10_2/uL and the APTT ([…], time 28 day) was 17.3 s. For the same molecule, the Bas ([…], time 28 day) was 0%, the Eos ([…], time 28 day) was 1% and the Fbg ([…], time 28 day) was 229 mg/dL. For the same molecule, the Hb ([…], time 28 day) was 14.7 g/dL, the Ht ([…], time 28 day) was 43.6% and the Lym ([…], time 28 day) was 84%. For the same molecule, the MCH ([…], time 28 day) was 19.9 pg, the MCHC ([…], time 28 day) was 33.7% and the MCV ([…], time 28 day) was 59.2 fL. It also gave a Mono ([…], time 28 day) of 5.2%, a Neu ([…], time 28 day) of 9.8% and a PT ([…], time 28 day) of 11.8 s. It also gave a Plat ([…], time 28 day) of 112.4 x10_4/uL, an RBC ([…], time 28 day) of 738.4 x10_4/ul and a Ret ([…], time 28 day) of 2.8%. It also gave a WBC ([…], time 28 day) of 144.2 x10_2/uL, a KIDNEY_L ([…], time 7 day) of 1.1 g and a KIDNEY_R ([…], time 7 day) of 1.1 g. For the same molecule, the KIDNEY_TOTAL ([…], time 7 day) was 2.2 g, the KIDNEY_L ([…], time 14 day) was 1.2 g and the KIDNEY_R ([…], time 14 day) was 1.2 g. The KIDNEY_TOTAL ([…], time 14 day) was 2.4 g, the KIDNEY_L ([…], time 28 day) was 1.4 g and the KIDNEY_R ([…], time 28 day) was 1.4 g. It also gave a KIDNEY_TOTAL ([…], time 28 day) of 2.7 g, an LIVER ([…], time 7 day) of 12.3 g and an LIVER ([…], time 14 day) of 14.2 g. For the same molecule, the LIVER ([…], time 28 day) was 17.9 g, the A/G ([…], time 7 day) was 1.7 and the ALP ([…], time 7 day) was 813.4 IU/L. For the same molecule, the ALT ([…], time 7 day) was 34.4 IU/L, the AST ([…], time 7 day) was 60.6 IU/L and the BUN ([…], time 7 day) was 19 mg/dL. The CRE ([…], time 7 day) was 0.4 mg/dL, the Ca ([…], time 7 day) was 10.8 mg/dL and the Cl ([…], time 7 day) was 103.2 meq/L. It also gave a DBIL ([…], time 7 day) of 0.006 mg/dL, a GLC ([…], time 7 day) of 205.2 mg/dL and an IP ([…], time 7 day) of 8.1 mg/dL. For the same molecule, the K ([…], time 7 day) was 4.4 meq/L, the LDH ([…], time 7 day) was 57 IU/L and the Na ([…], time 7 day) was 137.8 meq/L. It also gave a PL ([…], time 7 day) of 160.2 mg/dL, an RALB ([…], time 7 day) of 3.6 g/dL and a TBIL ([…], time 7 day) of 0.4 mg/dL. It also gave a TC ([…], time 7 day) of 85.4 mg/dL, a TG ([…], time 7 day) of 119.6 mg/dL and a TP ([…], time 7 day) of 5.7 g/dL. The gamma-GTP ([…], time 7 day) was 1 IU/L, the A/G ([…], time 14 day) was 1.8 and the ALP ([…], time 14 day) was 806.2 IU/L. The ALT ([…], time 14 day) was 31.2 IU/L, the AST ([…], time 14 day) was 58.8 IU/L and the BUN ([…], time 14 day) was 18.4 mg/dL. For the same molecule, the CRE ([…], time 14 day) was 0.6 mg/dL, the Ca ([…], time 14 day) was 10.7 mg/dL and the Cl ([…], time 14 day) was 103.8 meq/L. For the same molecule, the DBIL ([…], time 14 day) was 0.018 mg/dL, the GLC ([…], time 14 day) was 198 mg/dL and the IP ([…], time 14 day) was 7.8 mg/dL. For the same molecule, the K ([…], time 14 day) was 4.6 meq/L, the LDH ([…], time 14 day) was 81 IU/L and the Na ([…], time 14 day) was 139.6 meq/L. The PL ([…], time 14 day) was 140.2 mg/dL, the RALB ([…], time 14 day) was 3.8 g/dL and the TBIL ([…], time 14 day) was 0.3 mg/dL. The TC ([…], time 14 day) was 70.2 mg/dL, the TG ([…], time 14 day) was 115.2 mg/dL and the TP ([…], time 14 day) was 5.9 g/dL. For the same molecule, the gamma-GTP ([…], time 14 day) was 1 IU/L, the A/G ([…], time 28 day) was 1.8 and the ALP ([…], time 28 day) was 563.4 IU/L. It also gave an ALT ([…], time 28 day) of 29.4 IU/L, an AST ([…], time 28 day) of 56.8 IU/L and a BUN ([…], time 28 day) of 20.4 mg/dL. For the same molecule, the CRE ([…], time 28 day) was 0.6 mg/dL, the Ca ([…], time 28 day) was 11 mg/dL and the Cl ([…], time 28 day) was 105.4 meq/L. For the same molecule, the DBIL ([…], time 28 day) was 0.006 mg/dL, the GLC ([…], time 28 day) was 221.4 mg/dL and the IP ([…], time 28 day) was 7.1 mg/dL. It also gave a K ([…], time 28 day) of 4.4 meq/L, an LDH ([…], time 28 day) of 63.6 IU/L and a Na ([…], time 28 day) of 139.6 meq/L. The PL ([…], time 28 day) was 152.6 mg/dL, the RALB ([…], time 28 day) was 3.9 g/dL and the TBIL ([…], time 28 day) was 0.2 mg/dL. For the same molecule, the TC ([…], time 28 day) was 73.6 mg/dL, the TG ([…], time 28 day) was 141.4 mg/dL and the TP ([…], time 28 day) was 6.2 g/dL. It also gave a gamma-GTP ([…], time 28 day) of 0.6 IU/L.
